Reference: ChEMBL document CHEMBL3046948, “Synthesis and SAR investigation of natural phenylpropene-derived methoxylated cinnamaldehydes and their novel Schiff bases as potent antimicrobial and antioxidant agents” (2013)
Converted amounts (≈) assume the structure as drawn. The source made the active and inactive calls. The rule behind the calls is not given here.

How the values were obtained:
Assay type in all cases: functional
Pichia kudriavzevii = assay: Antimicrobial activity against Pichia kudriavzevii MTCC 231 assessed as growth inhibition after 24 hr by broth microdilution method
Klebsiella pneumoniae = assay: Antimicrobial activity against Klebsiella pneumoniae MTCC 109 assessed as growth inhibition after 24 hr by broth microdilution method
Burkholderia cepacia = assay: Antimicrobial activity against Burkholderia cepacia MTCC 438 assessed as growth inhibition after 24 hr by broth microdilution method
Escherichia coli = assay: Antimicrobial activity against Escherichia coli MTCC 43 assessed as growth inhibition after 24 hr by broth microdilution method
Aspergillus niger = assay: Antimicrobial activity against Aspergillus niger MTCC 404 assessed as growth inhibition after 5 days by broth microdilution method
Micrococcus luteus = assay: Antimicrobial activity against Micrococcus luteus MTCC 2470 assessed as growth inhibition after 24 hr by broth microdilution method
Candida albicans = assay: Antimicrobial activity against Candida albicans MTCC 3017 assessed as growth inhibition after 24 hr by broth microdilution method
Bacillus subtilis = assay: Antimicrobial activity against Bacillus subtilis MTCC 121 assessed as growth inhibition after 24 hr by broth microdilution method
Pseudomonas aeruginosa = assay: Antimicrobial activity against Pseudomonas aeruginosa MTCC 424 assessed as growth inhibition after 24 hr by broth microdilution method
Aspergillus sydowii = assay: Antimicrobial activity against Aspergillus sydowii MTCC 4335 assessed as growth inhibition after 5 days by broth microdilution method
Staphylococcus aureus = assay: Antimicrobial activity against Staphylococcus aureus MTCC 3160 assessed as growth inhibition after 24 hr by broth microdilution method
Aspergillus parasiticus = assay: Antimicrobial activity against Aspergillus parasiticus MTCC 2797 assessed as growth inhibition after 5 days by broth microdilution method
Enterobacter cloacae = assay: Antimicrobial activity against Enterobacter cloacae MTCC 509 assessed as growth inhibition after 24 hr by broth microdilution method
Trichophyton rubrum = assay: Antimicrobial activity against Trichophyton rubrum MTCC 296 assessed as growth inhibition after 5 days by broth microdilution method

Compound	MIC (Pichia kudriavzevii; MTCC 231, 24 h) [mM]	MIC (Klebsiella pneumoniae)	MIC (Burkholderia cepacia)	MIC (Escherichia coli)	MIC (Aspergillus niger)	MIC (Micrococcus luteus)	MIC (Candida albicans; MTCC 3017, 24 h) [mM]	MIC (Bacillus subtilis)	MIC (Pseudomonas aeruginosa)	MIC (Aspergillus sydowii)	MIC (Staphylococcus aureus)	MIC (Aspergillus parasiticus)	MIC (Klebsiella pneumoniae; MTCC 109, 24 h) [mM]	MIC (Escherichia coli; MTCC 43, 24 h) [mM]	MIC (Micrococcus luteus; MTCC 2470, 24 h) [mM]	MIC (Bacillus subtilis; MTCC 121, 24 h) [mM]	MIC (Aspergillus sydowii; MTCC 4335, 120 h) [mM]	MIC (Staphylococcus aureus; MTCC 3160, 24 h) [mM]	MIC (Enterobacter cloacae; MTCC 509, 24 h) [mM]	MIC (Trichophyton rubrum; MTCC 296, 120 h) [mM]	also measured
C/C=C/c1ccc(OC)cc1 [ANETHOLE]	6.74 (≈ 999 µg/mL)	inactive	inactive	inactive	inactive	inactive	6.74 (≈ 999 µg/mL)	inactive	inactive	inactive	inactive	inactive									MIC (Enterobacter cloacae): inactive; MIC (Trichophyton rubrum): inactive
OC/C=C/c1ccccc1 [CINNAMIC ALCOHOL]	3.72 (≈ 499 µg/mL)						1.86 (≈ 250 µg/mL)						3.72 (≈ 499 µg/mL)	7.45 (≈ 1000 µg/mL)	7.45 (≈ 1000 µg/mL)	7.45 (≈ 1000 µg/mL)	3.72 (≈ 499 µg/mL)	14.9 (≈ 2000 µg/mL)	7.45 (≈ 1000 µg/mL)	1.86 (≈ 250 µg/mL)	MIC (Burkholderia cepacia; MTCC 438, 24 h): 1.86 mM (≈ 250 µg/mL); MIC (Aspergillus niger; MTCC 404, 120 h): 3.72 mM (≈ 499 µg/mL); MIC (Pseudomonas aeruginosa; MTCC 424, 24 h): 3.72 mM (≈ 499 µg/mL); MIC (Aspergillus parasiticus; MTCC 2797, 120 h): 3.72 mM (≈ 499 µg/mL)
COc1ccc(/C=C/C=O)c(Br)c1OC		inactive	inactive	inactive	inactive	inactive		inactive	inactive	inactive	inactive	inactive									MIC (Pichia kudriavzevii): inactive; MIC (Candida albicans): inactive; MIC (Enterobacter cloacae): inactive; MIC (Trichophyton rubrum): inactive
CN(C)c1ccc(/C=C/C=O)cc1		inactive	inactive	inactive	inactive			inactive	inactive	inactive	inactive	inactive			11.4 (≈ 2000 µg/mL)				11.4 (≈ 2000 µg/mL)		MIC (Pichia kudriavzevii): inactive; MIC (Candida albicans): inactive; MIC (Trichophyton rubrum): inactive
COc1ccc(/C=C/C=O)cc1 [PARA-METHOXY CINNAMALDEHYDE]	0.77 (≈ 125 µg/mL)		inactive				0.77 (≈ 125 µg/mL)						3.08 (≈ 500 µg/mL)	3.08 (≈ 500 µg/mL)	3.08 (≈ 500 µg/mL)	6.16 (≈ 999 µg/mL)	3.08 (≈ 500 µg/mL)	3.08 (≈ 500 µg/mL)	3.08 (≈ 500 µg/mL)	0.77 (≈ 125 µg/mL)	MIC (Aspergillus niger; MTCC 404, 120 h): 3.08 mM (≈ 500 µg/mL); MIC (Pseudomonas aeruginosa; MTCC 424, 24 h): 0.77 mM (≈ 125 µg/mL); MIC (Aspergillus parasiticus; MTCC 2797, 120 h): 3.08 mM (≈ 500 µg/mL)
C/C=C/c1ccc2c(c1)OCO2 [ISOSAFROLE]		inactive	inactive	inactive	inactive	inactive		inactive	inactive	inactive	inactive	inactive								3.08 (≈ 500 µg/mL)	MIC (Pichia kudriavzevii): inactive; MIC (Candida albicans): inactive; MIC (Enterobacter cloacae): inactive
CCOc1ccc(/C=C/C=O)cc1OC	4.85 (≈ 1000 µg/mL)						2.42 (≈ 499 µg/mL)						9.7 (≈ 2000 µg/mL)	9.7 (≈ 2000 µg/mL)	4.85 (≈ 1000 µg/mL)	4.85 (≈ 1000 µg/mL)	4.85 (≈ 1000 µg/mL)	2.42 (≈ 499 µg/mL)	9.7 (≈ 2000 µg/mL)	2.42 (≈ 499 µg/mL)	MIC (Burkholderia cepacia; MTCC 438, 24 h): 4.85 mM (≈ 1000 µg/mL); MIC (Aspergillus niger; MTCC 404, 120 h): 4.85 mM (≈ 1000 µg/mL); MIC (Pseudomonas aeruginosa; MTCC 424, 24 h): 4.85 mM (≈ 1000 µg/mL); MIC (Aspergillus parasiticus; MTCC 2797, 120 h): 2.42 mM (≈ 499 µg/mL)
CC(C)OC(=O)/C=C/c1ccccc1		inactive	inactive	inactive	inactive	inactive		inactive	inactive	inactive	inactive	inactive									MIC (Pichia kudriavzevii): inactive; MIC (Candida albicans): inactive; MIC (Enterobacter cloacae): inactive; MIC (Trichophyton rubrum): inactive
COc1cc(OC)c(OC)cc1C=O [ASARALDEHYDE]	2.55 (≈ 500 µg/mL)						2.55 (≈ 500 µg/mL)						10.2 (≈ 2000 µg/mL)	10.2 (≈ 2000 µg/mL)	2.55 (≈ 500 µg/mL)	5.1 (≈ 1000 µg/mL)	5.1 (≈ 1000 µg/mL)	5.1 (≈ 1000 µg/mL)	10.2 (≈ 2000 µg/mL)	0.16 (≈ 31.4 µg/mL)	MIC (Burkholderia cepacia; MTCC 438, 24 h): 5.1 mM (≈ 1000 µg/mL); MIC (Aspergillus niger; MTCC 404, 120 h): 5.1 mM (≈ 1000 µg/mL); MIC (Pseudomonas aeruginosa; MTCC 424, 24 h): 2.55 mM (≈ 500 µg/mL); MIC (Aspergillus parasiticus; MTCC 2797, 120 h): 2.55 mM (≈ 500 µg/mL)
O=C/C=C/c1ccccc1 [CINNAMALDEHYDE]	0.47 (≈ 62.1 µg/mL)						0.47 (≈ 62.1 µg/mL)						3.78 (≈ 500 µg/mL)	1.89 (≈ 250 µg/mL)	3.78 (≈ 500 µg/mL)	1.89 (≈ 250 µg/mL)	3.78 (≈ 500 µg/mL)	1.89 (≈ 250 µg/mL)	1.89 (≈ 250 µg/mL)	0.47 (≈ 62.1 µg/mL)	MIC (Burkholderia cepacia; MTCC 438, 24 h): 1.89 mM (≈ 250 µg/mL); MIC (Aspergillus niger; MTCC 404, 120 h): 1.89 mM (≈ 250 µg/mL); MIC (Pseudomonas aeruginosa; MTCC 424, 24 h): 1.89 mM (≈ 250 µg/mL); MIC (Aspergillus parasiticus; MTCC 2797, 120 h): 3.78 mM (≈ 500 µg/mL)
CCCCCCCCCCCCOC(=O)/C=C/c1ccccc1	0.39 (≈ 123 µg/mL)		inactive	inactive	inactive	inactive	0.79 (≈ 250 µg/mL)	inactive	inactive	inactive	inactive	inactive	3.16 (≈ 1000 µg/mL)							0.79 (≈ 250 µg/mL)	MIC (Enterobacter cloacae): inactive
COc1cc(OC)c(OC)cc1/C=C/C=O	8.99 (≈ 2000 µg/mL)	inactive	inactive	inactive	inactive		8.99 (≈ 2000 µg/mL)	inactive	inactive		inactive	inactive			2.25 (≈ 500 µg/mL)		4.5 (≈ 1000 µg/mL)			8.99 (≈ 2000 µg/mL)	MIC (Enterobacter cloacae): inactive
NYSTATIN					0.03 mM					0.004 mM		0.06 mM									MIC (Pichia kudriavzevii): 0.03 mM; MIC (Candida albicans): 0.008 mM; MIC (Trichophyton rubrum): 0.008 mM
CC1(C)S[C@@H]2[C@H](NC(=O)[C@H](N)c3ccccc3)C(=O)N2[C@H]1C(=O)O [AMPICILLIN]													5.7 (≈ 1990 µg/mL)	0.08 (≈ 28 µg/mL)	0.01 (≈ 3.49 µg/mL)	0.01 (≈ 3.49 µg/mL)		0.01 (≈ 3.49 µg/mL)	5.7 (≈ 1990 µg/mL)		MIC (Burkholderia cepacia; MTCC 438, 24 h): 5.7 mM (≈ 1990 µg/mL); MIC (Pseudomonas aeruginosa; MTCC 424, 24 h): 2.8 mM (≈ 978 µg/mL)
COc1ccc(C=O)cc1 [ANISALDEHYDE]	3.67 (≈ 500 µg/mL)					inactive	3.67 (≈ 500 µg/mL)		inactive				14.7 (≈ 2000 µg/mL)	14.7 (≈ 2000 µg/mL)		14.7 (≈ 2000 µg/mL)	1.83 (≈ 249 µg/mL)	1.83 (≈ 249 µg/mL)	14.7 (≈ 2000 µg/mL)	0.92 (≈ 125 µg/mL)	MIC (Aspergillus niger; MTCC 404, 120 h): 7.34 mM (≈ 999 µg/mL); MIC (Aspergillus parasiticus; MTCC 2797, 120 h): 1.83 mM (≈ 249 µg/mL)
